Laboratory results taken from patent US10308689B2, “Dengue virus (DV) polypeptide sequences, T cell epitopes and methods and uses thereof” (LA JOLLA INSTITUTE FOR ALLERGY AND IMMUNOLOGY, priority 2010, dated 2019).

System: PBMC of healthy adult blood donors from Colombo, Sri Lanka
Experiment: Ex vivo IFNγ ELISPOT, HLA-matched PBMC of Sri Lankan blood donors
Assay type: cell-based, human
Parameters: Total Response per epitope: unit not given here
Conditions: for Total Response per epitope: IFNγ ELISPOT response summed over responding donors; for # donors responded: number of donors responding to the epitope, HLA-matched PBMC, proteome-wide screen; for Total Response per epitope / T cell response [SFC]: per epitope; for T cell response [SFC]: ex vivo IFNγ SFC/10^6 PBMC; for # of responders: responding donors, HLA allele(s)

Structure (SMILES)	Total Response per epitope	# donors responded	T cell response [SFC]	# of responders
CC(C)C[C@H](N)C(=O)N1CCC[C@H]1C(=O)N[C@@H](CCC(=O)O)C(=O)N[C@@H](CCC(=O)O)C(=O)N[C@@H](CCC(N)=O)C(=O)N[C@@H](CC(=O)O)C(=O)N[C@@H](CCC(N)=O)C(=O)N[C@@H](CC(N)=O)C(=O)N[C@@H](Cc1ccc(O)cc1)C(=O)O	1166.7	5	–	–
CC(C)C[C@H](NC(=O)[C@H](CC(C)C)NC(=O)[C@H](CC(C)C)NC(=O)[C@@H](NC(=O)[C@H](CCC(=O)O)NC(=O)[C@H](CC(C)C)NC(=O)[C@@H](NC(=O)[C@H](CCC(=O)O)NC(=O)[C@@H]1CCCN1C(=O)[C@@H](N)CC(C)C)[C@@H](C)O)[C@@H](C)O)C(=O)O	296.7	4	–	–
CSCC[C@H](NC(=O)[C@H](Cc1ccccc1)NC(=O)[C@@H](NC(=O)[C@@H]1CCCN1C(=O)[C@@H](N)CC(C)C)[C@@H](C)O)C(=O)N[C@H](C(=O)N[C@@H](CCC(N)=O)C(=O)N[C@@H](CCCCN)C(=O)N[C@@H](C)C(=O)N[C@@H](CCCNC(=N)N)C(=O)O)[C@@H](C)O	1263.3	8	–	–
CC[C@H](C)[C@H](NC(=O)[C@H](Cc1ccccc1)NC(=O)[C@H](C)NC(=O)[C@@H](N)CCSC)C(=O)N[C@@H](C)C(=O)N[C@@H](Cc1ccccc1)C(=O)N[C@@H](CC(C)C)C(=O)N[C@@H](CCCNC(=N)N)C(=O)N[C@@H](Cc1ccccc1)C(=O)O	146.7	2	–	–
CC[C@H](C)[C@H](NC(=O)[C@H](CC(N)=O)NC(=O)[C@H](C)NC(=O)[C@@H](N)CCSC)C(=O)N[C@@H](Cc1ccccc1)C(=O)N[C@@H](CCCNC(=N)N)C(=O)NCC(=O)N[C@@H](CO)C(=O)N[C@@H](Cc1ccc(O)cc1)C(=O)O	821.7	5	–	–
CC[C@H](C)[C@H](NC(=O)[C@H](CC(C)C)NC(=O)[C@H](C)NC(=O)[C@H](CC(C)C)NC(=O)[C@H](CC(C)C)NC(=O)[C@@H](N)CCSC)C(=O)N[C@@H](C)C(=O)N[C@H](C(=O)N[C@@H](CC(C)C)C(=O)O)C(C)C	81.7	1	–	–
CC[C@H](C)[C@H](NC(=O)[C@H](CC(C)C)NC(=O)[C@H](CC(C)C)NC(=O)[C@@H](N)CCSC)C(=O)N[C@@H](CC(C)C)C(=O)N[C@@H](CS)C(=O)N[C@H](C(=O)N[C@H](C(=O)N[C@@H](CCC(N)=O)C(=O)N[C@H](C(=O)O)C(C)C)[C@@H](C)O)C(C)C	43.3	1	–	–
CSCC[C@H](NC(=O)[C@H](CO)NC(=O)[C@@H]1CCCN1C(=O)[C@@H](N)CCSC)C(=O)N[C@@H](CCCCN)C(=O)N[C@@H](CCCNC(=N)N)C(=O)N[C@@H](Cc1ccccc1)C(=O)N[C@@H](CCCNC(=N)N)C(=O)N[C@@H](CCCNC(=N)N)C(=O)N[C@@H](CCC(=O)O)C(=O)O	1336.7	5	–	–
CC[C@H](C)[C@H](NC(=O)[C@@H](NC(=O)[C@H](CO)NC(=O)[C@@H]1CCCN1C(=O)[C@@H](N)CCSC)C(C)C)C(=O)N[C@@H](CCC(=O)O)C(=O)N[C@@H](CCCCN)C(=O)N[C@@H](CCSC)C(=O)N[C@@H](CCC(=O)O)C(=O)N[C@H](C(=O)O)[C@@H](C)O	783.3	2	–	–
CSCC[C@H](N)C(=O)N1CCC[C@H]1C(=O)N[C@H](C(=O)N[C@H](C(=O)N[C@@H](Cc1c[nH]cn1)C(=O)N[C@@H](CO)C(=O)N[C@@H](CO)C(=O)N[C@@H](C)C(=O)N[C@@H](C)C(=O)N[C@@H](CCC(N)=O)C(=O)O)[C@@H](C)O)C(C)C	183.3	2	–	–
CSCC[C@H](NC(=O)[C@@H](NC(=O)[C@H](CCCNC(=N)N)NC(=O)CNC(=O)[C@H](CC(C)C)NC(=O)[C@H](CC(=O)O)NC(=O)[C@H](CCCNC(=N)N)NC(=O)[C@H](Cc1ccccc1)NC(=O)[C@H](CO)NC(=O)[C@@H](N)CCSC)C(C)C)C(=O)O	3250.0	8	3250	8
CSCC[C@H](NC(=O)[C@H](CO)NC(=O)[C@H](Cc1ccc(O)cc1)NC(=O)[C@H](CO)NC(=O)[C@@H](N)CCSC)C(=O)N[C@@H](CS)C(=O)N[C@H](C(=O)NCC(=O)N[C@@H](CCCCN)C(=O)N[C@@H](Cc1ccccc1)C(=O)O)[C@@H](C)O	2553.3	6	2553	6
CSCC[C@H](NC(=O)[C@@H](NC(=O)[C@H](Cc1ccc(O)cc1)NC(=O)[C@H](CO)NC(=O)[C@@H](N)CCSC)[C@@H](C)O)C(=O)N[C@@H](CS)C(=O)N[C@@H](CO)C(=O)NCC(=O)N[C@@H](CCCCN)C(=O)O	23.3	1	–	–
CC[C@H](C)[C@H](NC(=O)[C@H](Cc1ccc(O)cc1)NC(=O)CNC(=O)[C@H](CCCNC(=N)N)NC(=O)[C@H](C)NC(=O)[C@H](C)NC(=O)[C@@H](NC(=O)[C@H](CO)NC(=O)[C@H](C)NC(=O)[C@@H]1CCCN1)[C@@H](C)CC)C(=O)O	611.7	2	–	–
C[C@H](NC(=O)[C@H](Cc1c[nH]c2ccccc12)NC(=O)[C@@H](NC(=O)[C@H](CCCNC(=N)N)NC(=O)[C@H](Cc1ccc(O)cc1)NC(=O)[C@@H]1CCCN1C(=O)[C@H](CC(N)=O)NC(=O)[C@H](CCC(=O)O)NC(=O)[C@@H](N)CCC(N)=O)[C@@H](C)O)C(=O)N[C@@H](Cc1ccc(O)cc1)C(=O)O	265.0	1	–	–
CC(C)[C@H](NC(=O)CNC(=O)[C@H](CO)NC(=O)[C@@H](N)CCC(N)=O)C(=O)N[C@@H](CC(=O)O)C(=O)N[C@H](C(=O)N[C@@H](Cc1ccccc1)C(=O)N[C@@H](Cc1ccccc1)C(=O)N[C@H](C(=O)N1CCC[C@H]1C(=O)O)[C@@H](C)O)C(C)C	103.3	1	–	–
CC(C)C[C@H](NC(=O)[C@H](CO)NC(=O)CNC(=O)[C@H](CS)NC(=O)[C@H](Cc1c[nH]c2ccccc12)NC(=O)[C@H](CCC(N)=O)NC(=O)[C@H](CC(=O)O)NC(=O)[C@H](CCC(=O)O)NC(=O)[C@@H](N)CCCNC(=N)N)C(=O)O	48.3	1	–	–
CSCC[C@H](NC(=O)[C@H](Cc1ccc(O)cc1)NC(=O)[C@@H](N)CCCNC(=N)N)C(=O)NCC(=O)N[C@@H](CCC(=O)O)C(=O)N[C@@H](CC(=O)O)C(=O)NCC(=O)N[C@@H](CS)C(=O)N[C@@H](Cc1c[nH]c2ccccc12)C(=O)N[C@@H](Cc1ccc(O)cc1)C(=O)O	66.7	1	–	–
CC[C@H](C)[C@H](NC(=O)[C@H](CCC(=O)O)NC(=O)[C@H](Cc1ccccc1)NC(=O)[C@@H]1CCCN1C(=O)[C@@H](NC(=O)[C@H](CCCCN)NC(=O)[C@H](CS)NC(=O)[C@@H]1CCCN1C(=O)[C@@H](N)CO)[C@@H](C)CC)C(=O)N[C@@H](CCSC)C(=O)O	1156.0	5	–	–
CC[C@H](C)[C@H](NC(=O)[C@@H](NC(=O)[C@@H](NC(=O)[C@H](CC(N)=O)NC(=O)[C@H](Cc1c[nH]c2ccccc12)NC(=O)[C@H](Cc1ccccc1)NC(=O)[C@H](CCCCN)NC(=O)CNC(=O)[C@@H]1CCCN1C(=O)[C@@H](N)CO)[C@@H](C)O)[C@@H](C)O)C(=O)O	826.7	3	–	–
CC[C@H](C)[C@H](NC(=O)[C@@H](NC(=O)[C@@H]1CCCN1C(=O)[C@@H](N)CO)[C@@H](C)CC)C(=O)N[C@@H](CC(N)=O)C(=O)N[C@@H](CCCNC(=N)N)C(=O)N[C@@H](CCC(=O)O)C(=O)NCC(=O)N[C@@H](CCCCN)C(=O)N[C@H](C(=O)O)C(C)C	106.7	1	–	–
CC[C@H](C)[C@H](NC(=O)[C@H](CO)NC(=O)[C@H](CC(C)C)NC(=O)[C@@H](NC(=O)[C@@H]1CCCN1C(=O)[C@@H](N)CO)[C@@H](C)CC)C(=O)N[C@H](C(=O)N[C@H](C(=O)N[C@@H](CO)C(=O)N[C@@H](CCC(=O)O)C(=O)O)[C@@H](C)CC)[C@@H](C)O	1068.3	6	–	–
CC(C)C[C@H](NC(=O)[C@H](CC(C)C)NC(=O)[C@@H](NC(=O)[C@H](C)NC(=O)[C@H](C)NC(=O)[C@@H](NC(=O)[C@H](CC(C)C)NC(=O)[C@@H](N)[C@@H](C)O)[C@@H](C)O)C(C)C)C(=O)N[C@@H](CC(C)C)C(=O)N[C@H](C(=O)O)C(C)C	66.7	1	–	–
CSCC[C@H](NC(=O)[C@H](Cc1ccc(O)cc1)NC(=O)[C@@H]1CCCN1C(=O)[C@H](CC(N)=O)NC(=O)[C@H](CC(C)C)NC(=O)[C@@H](N)C(C)C)C(=O)N1CCC[C@H]1C(=O)N[C@@H](CO)C(=O)N[C@H](C(=O)O)C(C)C	41.7	1	–	–
CSCC[C@H](NC(=O)[C@H](CC(C)C)NC(=O)[C@H](CO)NC(=O)[C@H](Cc1c[nH]c2ccccc12)NC(=O)[C@H](CCSC)NC(=O)[C@H](CCC(N)=O)NC(=O)[C@H](C)NC(=O)[C@@H](N)Cc1ccc(O)cc1)C(=O)N[C@@H](Cc1ccc(O)cc1)C(=O)O	38.3	1	–	–
CSCC[C@H](NC(=O)[C@H](CCC(N)=O)NC(=O)[C@H](C)NC(=O)[C@@H](N)Cc1ccc(O)cc1)C(=O)N[C@@H](Cc1c[nH]c2ccccc12)C(=O)N[C@@H](CO)C(=O)N[C@@H](CC(C)C)C(=O)N[C@@H](CCSC)C(=O)N[C@@H](Cc1ccc(O)cc1)C(=O)N[C@@H](Cc1ccccc1)C(=O)O	33.3	1	–	–
